According to US9205179B2, “Broad-spectrum antimicrobial compositions based on combinations of taurolidine and protamine and medical devices containing such compositions” (Ethicon, Inc., priority 2011, dated 2015):

What was measured:
[1] = system: Staphylococcus aureus ACTT 6538; assay: In vitro bacteria attachment assay on coated mesh discs in SST medium; format: cell-based; conditions: serum containing media; same TU dosage alone or combined with PS
Experimental: (§1) Taurolidine was dissolved at 4% wt./vol. in a 70% acetone 30% water vol./vol. mixture. Protamine sulfate was dissolved at 10% wt./vol. in water under warming. 50 μl of the taurolidine (TU) solution and 20 μl of the protamine (PS) solution were applied to each mesh disk using a pipette and allowed to dry at 50° C. until the majority of the liquid was gone and then stored under vacuum. First the taurolidine solution was applied, and then immediately thereafter the protamine sulfate solution was applied. The in vitro bacteria attachment assay was developed for its utility of indicating biofilm prevention potential of prototype mesh. Since bacterial attachment to a surface is the first step of biofilm formation, a surface treatment that inhibits bacterial attachment would reduce the chance of subsequent biofilm formation. The assay was conducted in SST (Serum Saline TSB) medium to mimic in vivo and clinical conditions. The formulation of SST is Tryptic Soy Broth (TSB):serum:saline in the ratio of 1:2:7. Each test article was incubated in SST inoculated with Staphylococcus aureus ACTT 6538 or Escherichia coli ATCC 25922 at about 6 Log CFU/ml. […] Viable bacteria populations were measured by plate count on TSA (Tryptic Soy agar) medium contain neutralizing agents. […]

[2] = system: Escherichia coli ATCC 25922; assay: as above; format: cell-based; conditions: serum containing media; same TU dosage alone or combined with PS
Experimental: as §1

[3] = cited from earlier work

O=S1(=O)CCN(CN2CCS(=O)(=O)NC2)CN1 [TU, bis(1,1-dioxoperhydro-1,2,4-thiadiazinyl-4)-methane]
Inhibition of attachment by S. aureus to treated mesh surface [1]: less inhibition than the combination
Inhibition of attachment by E. coli to treated mesh surface [2]: less inhibition than the combination
Cumulative dose shown to be safe and well tolerated ([3]; cumulative dose, up to and exceeding): exceeding 300 g
Systemic dose shown to be safe and well tolerated ([3]; systemic dose): exceeding 40 g/day
